This note sets out measurements from PMC5524571 (Molecular cell, 2012).

Series [1] deals with T1, MdfA (Escherichia coli, UniProt P0AEY8). The note with it: several pH values (pH 6 to 8.5).
The target in series [2] is T1, MdfA. Briefly: substrate-induced proton release from purified MdfA. The class given is binding. The note with it: unbuffered solution, 2 µM MdfA, 500 µM EtBr.
Series [3] deals with Asp34 (UniProt position 34, TYIGNDMIQPG). Briefly: fluorescence. The note with it: Detergent-solubilised, folded; competition between TPP and protons.

T1 sequence (P0AEY8 whole entry): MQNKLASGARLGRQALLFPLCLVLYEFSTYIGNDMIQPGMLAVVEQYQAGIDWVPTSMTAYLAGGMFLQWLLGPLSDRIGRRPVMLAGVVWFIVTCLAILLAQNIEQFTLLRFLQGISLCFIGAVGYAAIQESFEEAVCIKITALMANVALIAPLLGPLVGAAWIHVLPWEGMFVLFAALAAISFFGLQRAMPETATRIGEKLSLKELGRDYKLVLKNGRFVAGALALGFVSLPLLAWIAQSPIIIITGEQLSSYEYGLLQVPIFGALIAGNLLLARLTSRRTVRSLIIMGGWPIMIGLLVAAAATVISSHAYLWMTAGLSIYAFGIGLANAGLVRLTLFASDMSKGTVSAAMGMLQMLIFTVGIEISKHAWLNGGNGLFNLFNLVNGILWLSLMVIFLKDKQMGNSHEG

For the molecule `c1ccc([P+](c2ccccc2)(c2ccccc2)c2ccccc2)cc1` [TPP], the dissociation constant entry in series [1] was “the affinity of purified, detergent-solubilized MdfA for its substrate tetraphenylphosphonium (TPP) was measured”.

`CC[n+]1c(-c2ccccc2)c2cc(N)ccc2c2ccc(N)cc21` [ethidium bromide]: the “substrate-induced proton release from purified MdfA (pH electrode)” value in series [2] is given as “adding TPP or EtBr caused rapid acidification”. With “Multidrug transporter MdfA (wild type, His6-tagged) (Escherichia coli)”, the pKa in series [3] is listed as 6.84 ± 0.06.
